Experimental data taken from patent US11673897B2, “Compounds for the treatment of kinase-dependent disorders” (Exelixis, Inc., priority 2018, dated 2023).
pIC50: −log10 of the molar value.

What was measured:
Format in all cases: cell-based
KDR = KDR (Homo sapiens (Human), UniProt P35968); experiment: KDR autophosphorylation ELISA in HUVEC cells; details: cellular, VEGF165-stimulated, phospho-KDR ELISA
How it was run: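 Serum-starved (24 h) primary HUVEC were pretreated 1 h with compounds (8-point dilution, 0.3% DMSO final), then stimulated 5 min with 100 ng/mL VEGF165. Lysate phospho-KDR quantified by sandwich ELISA against a phospho-KDR standard; IC50 by 4-parameter fit, normalised to stimulated DMSO and unstimulated controls.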

AXL = AXL (Homo sapiens (Human), UniProt P30530); experiment: AXL autophosphorylation ELISA in A-172 cells; details: cellular, Gas6-stimulated, phospho-AXL ELISA
How it was run: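 A-172 glioblastoma cells, serum-starved 24 h, took compounds for 1 h (8-point curve, 0.3% DMSO) before 15 min stimulation with 1 μg/mL recombinant human Gas6. Lysate phospho-AXL measured by ELISA against a phospho-AXL standard, normalized to DMSO (100%) and reference inhibitor (0%); IC50 from 4-parameter logistic fit.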

Mer = Mer (Homo sapiens (Human), UniProt Q12866); experiment: Mer autophosphorylation ELISA in transient transfected 293A cells; details: cellular, MERTK-transfected 293A cells, phospho-Mer ELISA
How it was run: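 293A cells transiently transfected with human MERTK DNA, then treated 1 h with 8-point compound dilutions in serum-free medium (0.3% DMSO). Phospho-Mer in lysates quantified by sandwich ELISA against phospho-Mer standard; normalised to DMSO (100%) and reference inhibitor (0%), IC50 from 4-parameter logistic fit.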

Sequence of Mer (Q12866 21-999): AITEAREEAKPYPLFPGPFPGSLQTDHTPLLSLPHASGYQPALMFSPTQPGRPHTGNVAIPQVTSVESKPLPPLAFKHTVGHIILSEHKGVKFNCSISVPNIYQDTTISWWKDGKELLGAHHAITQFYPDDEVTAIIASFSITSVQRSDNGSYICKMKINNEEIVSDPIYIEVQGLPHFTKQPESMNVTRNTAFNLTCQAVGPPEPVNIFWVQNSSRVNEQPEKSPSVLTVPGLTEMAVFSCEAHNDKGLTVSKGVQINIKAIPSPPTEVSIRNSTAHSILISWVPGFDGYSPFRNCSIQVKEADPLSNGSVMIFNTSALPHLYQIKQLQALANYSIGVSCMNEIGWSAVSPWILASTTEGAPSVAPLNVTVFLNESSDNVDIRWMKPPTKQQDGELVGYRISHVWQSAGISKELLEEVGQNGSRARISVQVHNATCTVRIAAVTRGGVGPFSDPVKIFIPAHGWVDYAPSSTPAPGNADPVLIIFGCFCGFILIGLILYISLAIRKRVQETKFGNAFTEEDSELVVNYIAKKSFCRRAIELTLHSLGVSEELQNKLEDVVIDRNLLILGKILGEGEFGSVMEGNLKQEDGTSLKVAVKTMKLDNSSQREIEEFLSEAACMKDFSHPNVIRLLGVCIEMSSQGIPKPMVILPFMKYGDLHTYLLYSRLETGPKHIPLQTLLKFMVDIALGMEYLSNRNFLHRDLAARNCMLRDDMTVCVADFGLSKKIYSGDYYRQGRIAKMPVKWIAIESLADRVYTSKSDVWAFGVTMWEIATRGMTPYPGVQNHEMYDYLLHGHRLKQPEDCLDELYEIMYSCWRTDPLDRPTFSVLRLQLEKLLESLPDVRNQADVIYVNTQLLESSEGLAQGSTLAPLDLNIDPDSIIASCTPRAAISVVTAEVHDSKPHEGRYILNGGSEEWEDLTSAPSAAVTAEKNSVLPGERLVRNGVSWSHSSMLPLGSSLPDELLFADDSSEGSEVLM
Sequence of KDR (P35968 20-1356): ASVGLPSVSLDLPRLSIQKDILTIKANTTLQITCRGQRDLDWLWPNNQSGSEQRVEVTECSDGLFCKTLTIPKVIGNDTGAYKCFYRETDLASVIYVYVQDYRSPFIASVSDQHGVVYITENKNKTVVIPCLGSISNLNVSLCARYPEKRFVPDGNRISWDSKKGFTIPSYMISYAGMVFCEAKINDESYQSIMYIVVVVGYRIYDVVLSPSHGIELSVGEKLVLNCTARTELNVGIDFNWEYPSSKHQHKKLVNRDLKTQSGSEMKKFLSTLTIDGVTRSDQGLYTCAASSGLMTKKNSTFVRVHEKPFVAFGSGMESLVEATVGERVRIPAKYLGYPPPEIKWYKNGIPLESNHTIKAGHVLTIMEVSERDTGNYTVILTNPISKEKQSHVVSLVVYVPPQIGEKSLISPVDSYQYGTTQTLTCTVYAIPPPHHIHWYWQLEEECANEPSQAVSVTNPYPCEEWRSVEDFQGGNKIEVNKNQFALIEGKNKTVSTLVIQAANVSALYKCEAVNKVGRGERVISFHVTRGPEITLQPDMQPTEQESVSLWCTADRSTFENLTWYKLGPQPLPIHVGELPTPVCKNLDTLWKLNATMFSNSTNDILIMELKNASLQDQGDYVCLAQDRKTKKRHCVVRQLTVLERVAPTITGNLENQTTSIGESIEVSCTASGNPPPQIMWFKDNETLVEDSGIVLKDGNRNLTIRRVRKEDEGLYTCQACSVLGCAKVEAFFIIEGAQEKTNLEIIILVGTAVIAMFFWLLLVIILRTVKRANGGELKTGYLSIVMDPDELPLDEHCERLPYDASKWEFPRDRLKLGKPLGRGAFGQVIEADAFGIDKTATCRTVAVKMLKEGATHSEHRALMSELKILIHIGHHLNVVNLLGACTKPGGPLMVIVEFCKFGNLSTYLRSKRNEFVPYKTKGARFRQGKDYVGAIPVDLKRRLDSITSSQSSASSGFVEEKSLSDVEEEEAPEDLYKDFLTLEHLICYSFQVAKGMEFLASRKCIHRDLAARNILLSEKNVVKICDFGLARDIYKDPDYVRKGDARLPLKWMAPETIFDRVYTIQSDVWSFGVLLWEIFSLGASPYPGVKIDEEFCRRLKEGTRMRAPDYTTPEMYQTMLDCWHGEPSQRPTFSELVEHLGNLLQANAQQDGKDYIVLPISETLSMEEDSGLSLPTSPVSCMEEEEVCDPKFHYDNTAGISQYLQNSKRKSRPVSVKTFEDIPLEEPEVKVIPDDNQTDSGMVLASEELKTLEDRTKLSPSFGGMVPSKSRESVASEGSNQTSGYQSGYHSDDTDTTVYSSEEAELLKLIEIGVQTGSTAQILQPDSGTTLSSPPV
Sequence of AXL (P30530 26-894): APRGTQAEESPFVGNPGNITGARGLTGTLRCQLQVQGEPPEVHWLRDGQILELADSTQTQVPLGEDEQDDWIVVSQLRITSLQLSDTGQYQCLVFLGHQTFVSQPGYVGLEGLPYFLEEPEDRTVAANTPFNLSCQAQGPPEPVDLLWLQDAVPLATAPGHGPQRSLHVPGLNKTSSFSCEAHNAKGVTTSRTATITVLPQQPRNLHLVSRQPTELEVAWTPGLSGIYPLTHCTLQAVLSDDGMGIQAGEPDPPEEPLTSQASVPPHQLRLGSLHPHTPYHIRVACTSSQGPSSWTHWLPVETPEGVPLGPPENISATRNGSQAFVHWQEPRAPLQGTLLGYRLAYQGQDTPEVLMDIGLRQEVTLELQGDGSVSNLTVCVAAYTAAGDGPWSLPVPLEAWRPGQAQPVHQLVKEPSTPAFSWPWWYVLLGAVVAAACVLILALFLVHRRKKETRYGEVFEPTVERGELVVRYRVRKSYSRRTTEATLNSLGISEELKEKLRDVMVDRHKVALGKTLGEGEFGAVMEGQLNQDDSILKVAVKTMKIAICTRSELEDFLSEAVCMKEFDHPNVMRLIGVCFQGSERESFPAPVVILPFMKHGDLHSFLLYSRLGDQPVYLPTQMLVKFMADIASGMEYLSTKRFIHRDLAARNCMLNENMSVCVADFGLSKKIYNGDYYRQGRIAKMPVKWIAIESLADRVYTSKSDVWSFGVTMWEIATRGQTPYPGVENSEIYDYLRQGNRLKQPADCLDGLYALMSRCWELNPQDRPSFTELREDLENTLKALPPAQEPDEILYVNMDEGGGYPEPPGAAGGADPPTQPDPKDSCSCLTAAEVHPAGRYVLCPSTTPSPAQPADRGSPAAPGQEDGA

Row | SMILES | pIC50 (KDR) | pIC50 (AXL) | pIC50 (Mer)
1 | COC(=O)c1cc2c(Oc3ccc(NC(=O)C4(C(=O)Nc5ccc(F)cc5)CC4)cn3)ccnc2cc1OC [Compound 10, Methyl 4-[5-[[1-[(4-fluorophenyl)carbamoyl]cyclopropanecarbonyl]-amino]pyridin-2-yl]oxy-7-methoxyquinoline-6-carboxylate] | 7.00 to 8.00 | 7.00 to 8.00 | 
2 | COc1cc2nccc(Oc3ccc(NC(=O)C4(C(=O)Nc5ccc(F)cc5)CC4)cn3)c2cc1C(N)=O [Compound 16, 1-N′-[6-(6-Carbamoyl-7-methoxyquinolin-4-yl)oxypyridin-3-yl]-1-N-(4-fluorophenyl)-cyclopropane-1,1-dicarboxamide] | 7.00 to 8.00 | 7.00 to 8.00 | 
3 | COc1cc2nccc(Oc3ccc(NC(=O)C4(C(=O)Nc5ccc(F)cc5)CC4)cn3)c2cc1-c1cn[nH]c1 [Compound 60, 1-N-(4-Fluorophenyl)-1-N′-[6-[7-methoxy-6-(1H-pyrazol-4-yl)quinolin-4-yl]oxypyridin-3-yl]cyclopropane-1,1-dicarboxamide] | 6.52 to 7.00 | 7.00 to 8.00 | 7.00 to 8.00
4 | COc1cc2nccc(Oc3ncc(NC(=O)C4(C(=O)Nc5ccc(F)cc5)CC4)cc3Cl)c2nc1OC [Compound 80, 1-N′-[5-Chloro-6-[(6,7-dimethoxy-1,5-naphthyridin-4-yl)oxy]pyridin-3-yl]-1-N-(4-fluorophenyl)cyclopropane-1,1-dicarboxamide] | < 6.52 | 6.52 to 7.00 | 6.52 to 7.00
5 | COc1cc2nccc(Oc3ccc(NC(=O)C4(C(=O)Nc5ccc(F)cc5)CC4)cn3)c2nc1OC [Compound 81, 1-N′-[6-[(6,7-Dimethoxy-1,5-naphthyridin-4-yl)oxy]pyridin-3-yl]-1-N-(4-fluorophenyl)cyclopropane-1,1-dicarboxamide] | < 6.52 | 6.52 to 7.00 | 
6 | COc1cc2nccc(Oc3ncc(NC(=O)C4(C(=O)Nc5ccc(F)cc5)CC4)cc3F)c2nc1OC [Compound 82, 1-N′-[6-[(6,7-Dimethoxy-1,5-naphthyridin-4-yl)oxy]-5-fluoropyridin-3-yl]-1-N-(4-fluorophenyl)cyclopropane-1,1-dicarboxamide] | < 6.52 | 7.00 to 8.00 | 7.00 to 8.00

Next, values leading:

Row | pIC50 (KDR) | pIC50 (AXL) | pIC50 (Mer) | SMILES
7 | < 6.52 | 7.00 to 8.00 | 7.00 to 8.00 | COC(=O)c1cc2c(Oc3ncc(NC(=O)C4(C(=O)Nc5ccc(F)cc5)CC4)cc3Cl)ccnc2cc1OC [Compound 11, Methyl 4-[3-chloro-5-[[1-[(4-fluorophenyl)carbamoyl]cyclopropanecarbonyl]-amino]pyridin-2-yl]oxy-7-methoxyquinoline-6-carboxylate]
8 | 7.00 to 8.00 | 7.00 to 8.00 |  | CNC(=O)c1cc2c(Oc3ccc(NC(=O)C4(C(=O)Nc5ccc(F)cc5)CC4)cn3)ccnc2cc1OC [Compound 17, 1-N-(4-Fluorophenyl)-1-N′-[6-[7-methoxy-6-(methylcarbamoyl)quinolin-4-yl]oxypyridin-3-yl]cyclopropane-1,1-dicarboxamide]
9 | < 6.52 | ≥ 8.00 | 7.00 to 8.00 | COc1cc2nccc(Oc3ncc(NC(=O)C4(C(=O)Nc5ccc(F)cc5)CC4)cc3Cl)c2cc1C(N)=O [Compound 18, 1-N′-[6-(6-Carbamoyl-7-methoxyquinolin-4-yl)oxy-5-chloropyridin-3-yl]-1-N-(4-fluorophenyl)cyclopropane-1,1-dicarboxamide]
